A short description of data set [1]: Plasma Stability Test: conversion of prodrug to drug after IV administration to dogs. Type of data set: in vivo. Conditions: IV at 2 mg/mL, HPLC analysis of blood plasma for 4 hours following dosing. As to the method:
The prodrug (3Z)-3-[(3,5-dimethyl-1H-pyrrol-2-yl)-methylidene]-1-(1-pyrrolidinylmethyl)-1,3-dihydro-2H-indol-2-one was administered IV at 2 mg/mL to dogs. Levels of both prodrug and drug (3(Z)-3-[(3,5-dimethyl-1H-pyrrol-2-yl)-methylidene]-1,3-dihydro-2H-indol-2-one) were followed by HPLC analysis of blood plasma for 4 hours following dosing.

The nature of data set [2]: Aqueous solubility of the prodrug compared with the parent compound. Type of data set: physicochemical. Conditions: compared with parent compound (II).

Each structure is given as a SMILES string.

From patent US7053113B2, “Mannich base prodrugs of 3-(pyrrol-2-yl-methylidene)-2-indolinone derivatives” (Sugen, Inc., priority 2000, dated 2006) come the findings set out here.

In the case of `Cc1cc(C)c(/C=C2\C(=O)N(CN3CCCC3)c3ccccc32)[nH]1` [Example 2, (3Z)-3-[(3,5-dimethyl-1H-pyrrol-2-yl)-methylidene]-1-(1-pyrrolidinylmethyl)-1,3-dihydro-2H-indol-2-one], the “prodrug converted into drug (area under the curve of drug concentration vs time)” value in data set [1] is given as 80%. For the same compound, in data set [2], the “aqueous solubility over the parent compound” value is listed as “increased aqueous solubility”.
